The structures appear in SMILES notation. pIC50: −log10 of the molar value.

For the experiment, the target named is T1, APOL1 (Homo sapiens, UniProt O14791).
T1 sequence (O14791 1-398 S342G/I384M): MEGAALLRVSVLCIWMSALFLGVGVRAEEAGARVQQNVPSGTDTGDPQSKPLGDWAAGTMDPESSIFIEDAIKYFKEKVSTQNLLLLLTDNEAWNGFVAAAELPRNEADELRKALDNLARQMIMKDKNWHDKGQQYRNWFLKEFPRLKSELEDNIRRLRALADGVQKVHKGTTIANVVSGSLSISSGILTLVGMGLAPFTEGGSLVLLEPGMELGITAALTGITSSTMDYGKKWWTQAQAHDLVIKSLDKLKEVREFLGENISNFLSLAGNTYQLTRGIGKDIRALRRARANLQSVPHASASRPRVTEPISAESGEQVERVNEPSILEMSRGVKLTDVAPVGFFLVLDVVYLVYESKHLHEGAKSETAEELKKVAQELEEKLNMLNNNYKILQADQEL
Nature of the experiment: MultiTox-Fluor Multiplex Cytotoxicity Assay in tet-inducible APOL1 T-REx-HEK293 cells (cell rescue, ratio of dead to live cells). It counts as cell-based. To be noted: tet-inducible transgenic APOL1 T-REx-HEK293 cell lines, 50 ng/mL tet, 24 hours; read-out: IP50 (i.e., IC50 for cell proliferation). From the text: The MultiTox-Fluor Multiplex Cytotoxicity Assay is a single-reagent-addition, homogeneous, fluorescence assay that measures the number of live and dead cells simultaneously in culture wells. The assay measures cell viability and cytotoxicity by detecting two distinct protease activities. […] The substrate enters intact cells, where it is cleaved to generate a fluorescent signal proportional to the number of living cells. […] A ratio of dead to live cells is used to normalize data.
The MultiTox reagent was added to each well and placed back in the incubator for an additional 30 minutes. The plate was read on the EnVision plate reader. A ratio of dead to live cells was used to normalize, and data was imported, analyzed, and fit using Genedata Screener (Basel, Switzerland) software. Data was normalized using percent of control, no tet (100% viability), and 50 ng/mL tet treated (0% viability), and fit using Smart Fit. The reagents, methods, and complete protocol for the MultiTox assay are described below.
Cells were washed with DPBS and then trypsinized to dissociate from the flask. Media was used to quench the trypsin, cells were then pelleted at 200 g and resuspended in fresh cell assay media (DMEM, 2% Tet-free FBS, 2 mM L-glutamine, 100 Units/mL penicillin-streptomycin). […] The plates were then incubated at room temperature for one hour.
Tetracycline is needed to induce APOL1 expression. 1 mg/mL tet stock in water was diluted to 250 ng/mL (5×) in cell assay media.
Compounds were dispensed at 200 nL in DMSO. The final top concentration was 10 μM with a 10 point 3-fold dilution in duplicate in the MultiTox assay.
20 μL was transferred from the 5× tet plate to the ARP and mixed, then 5 μL of 5× tet and the compounds were transferred to the cell plate and mixed using the Bravo. The cell plate was placed in the humidified 37° C. 5% CO2 incubator for 24 hours.
The MultiTox-Fluor Multiplex Cytotoxicity Assay was performed in accordance with the manufacturer's protocol. After cells were incubated with tet and compound for 24 hours, 25 μL of 1× MultiTox reagent was added to each well using the Multidrop dispenser; the plates were placed on a plate shaker (600 rpm) for 2 minutes, then centrifuged briefly and placed back in the 37° C. incubator for 30 minutes. The cell viability (excitation: 400 nm, emission: 486 nm) and cytotoxicity (excitation: 485 nm, emission: 535 nm) were read using the EnVision plate reader. A ratio of dead (cytotoxicity) to live (viability) cells was reported. Data was exported and analyzed in Genedata. Data was normalized using percent of control, no tet (100% viability), and 50 ng/mL tet treated (0% viability), and fit using Smart Fit settings in Genedata.
With `C[C@H]1C[C@@]2(CCN1Cc1cnn(C)c1)OCC(O)c1cc(Cl)sc12` (mixture of isomers) [Compound 818], the pIC50 was > 7.00. For `C[C@H]1C[C@@]2(CCN1Cc1cnc(N[C@H]3CC[C@H](O)CC3)nc1)OCC(O)c1cc(Cl)sc12` (mixture of isomers) [Compound 825, (2′S, 7R)-2-chloro-1′-[[2-[(4-hydroxycyclohexyl)amino]pyrimidin-5-yl]methyl]-2′-methyl-spiro[4,5-dihydrothieno[2,3-c]pyran-7,4′-piperidine]-4-ol] the value was > 7.00; for `Cc1cn2nc(CN3CC[C@]4(C[C@@H]3C)OCC(O)c3cc(Cl)sc34)cc2c(NC2CC2)n1` (mixture of isomers) [Compound 826, 2-chloro-1′-[[4-(cyclopropylamino)-6-methyl-pyrazolo[1,5-a]pyrazin-2-yl]methyl]-2′-methyl-spiro[4,5-dihydrothieno[2,3-c]pyran-7,4′-piperidine]-4-ol], > 7.00. Consider `CCc1cc2c(s1)CCO[C@@]21CCN(C2CC[C@@H](NC(=O)OC(C)(C)C)C2)[C@@H](C)C1` (single isomer, unassigned) [Compound 296], for which the pIC50 is 6.30 to 7.00. In the case of `Cc1cc2c(s1)CCO[C@@]21CCN(C2COCC2O)[C@@H](C)C1` (single isomer, unassigned) [Compound 499] it was > 7.00; in that of `Cc1cc2c(s1)CCO[C@@]21CCN(C2COCC2O)[C@@H](C)C1` (single isomer, unassigned) [Compound 500], > 7.00. In the case of `CC1Cc2sc(Cl)cc2C2(CCN(Cc3cnn(C)c3)[C@@H](C)C2)O1` (single isomer, unassigned) [Compound 528, (2′S)-2-chloro-2′,6-dimethyl-1′-[(1-methylpyrazol-4-yl)methyl]spiro[6,7-dihydrothieno[3,2-c]pyran-4,4′-piperidine]] it was 6.30 to 7.00. Take `CC1Cc2sc(Cl)cc2C2(CCN(Cc3cnn(C)c3)[C@@H](C)C2)O1` (single isomer, unassigned) [Compound 529, (2′S)-2-chloro-2′,6-dimethyl-1′-[(1-methylpyrazol-4-yl)methyl]spiro[6,7-dihydrothieno[3,2-c]pyran-4,4′-piperidine]]: the pIC50 was > 7.00. For `C[C@H]1C[C@@]2(CCN1Cc1cnn(CCS(C)(=O)=O)c1)OCC(O)c1cc(Cl)sc12` (single isomer, unassigned) [Compound 768] the value was > 7.00; for `C[C@H]1C[C@@]2(CCN1Cc1cnn(CCS(C)(=O)=O)c1)OCC(O)c1cc(Cl)sc12` (single isomer, unassigned) [Compound 769], > 7.00; for `C[C@H]1C[C@@]2(CCN1Cc1cnn(C)c1)OCC(O)c1cc(Cl)sc12` (single isomer, unassigned) [Compound 819], > 7.00. For `C[C@H]1C[C@@]2(CCN1Cc1cnn(C)c1)OCC(O)c1cc(Cl)sc12` (single isomer, unassigned) [Compound 820] the value was > 7.00; for `COC1CO[C@@]2(CCN(Cc3cnn(CCS(C)(=O)=O)c3)[C@@H](C)C2)c2sc(Cl)cc21` (single isomer, unassigned) [Compound 842, (2′S, 7R)-2-chloro-4-methoxy-2′-methyl-1′-[[1-(2-methylsulfonylethyl)pyrazol-4-yl]methyl]spiro[4,5-dihydrothieno[2,3-c]pyran-7,4′-piperidine]], > 7.00. For the compound `COC1CO[C@@]2(CCN(Cc3cnn(CCS(C)(=O)=O)c3)[C@@H](C)C2)c2sc(Cl)cc21` (single isomer, unassigned) [Compound 843, (2′S, 7R)-2-chloro-4-methoxy-2′-methyl-1′-[[1-(2-methylsulfonylethyl)pyrazol-4-yl]methyl]spiro[4,5-dihydrothieno[2,3-c]pyran-7,4′-piperidine]], the pIC50 was > 7.00.

With `Cc1c(Cl)sc2c1C(O)CO[C@@]21CCN(Cc2cnn(CCS(C)(=O)=O)c2)[C@@H](C)C1` (single isomer, unassigned) [Compound 859, (2′S, 7R)-2-chloro-2′,3-dimethyl-1′-[[1-(2-methylsulfonylethyl)pyrazol-4-yl]methyl]spiro[4,5-dihydrothieno[2,3-c]pyran-7,4′-piperidine]-4-ol], the pIC50 was > 7.00.

Turning to `C[C@H]1C[C@@]2(CCN1Cc1cnn(CCS(C)(=O)=O)c1)OCC(O)c1cc(C(F)(F)F)sc12` (single isomer, unassigned) [Compound 881], the pIC50 was > 7.00. Take `C[C@H]1C[C@@]2(CCN1Cc1cnn(CCS(C)(=O)=O)c1)OCC(O)c1cc(C(F)(F)F)sc12` (single isomer, unassigned) [Compound 882]: the pIC50 was > 7.00. For `C[C@H]1C[C@@]2(CCN1Cc1cnn(CCS(C)(=O)=O)c1)OCC(O)c1cc(C(F)(F)C(F)F)sc12` (single isomer, unassigned) [Compound 1013] the value was > 7.00; for `C[C@H]1C[C@@]2(CCN1Cc1cnn(CCS(C)(=O)=O)c1)OCC(O)c1cc(C(F)(F)C(F)F)sc12` (single isomer, unassigned) [Compound 1014, (2′S, 7R)-2′-methyl-1′-[[1-(2-methylsulfonylethyl)pyrazol-4-yl]methyl]-2-(1,1,2,2-tetrafluoroethyl)spiro[4,5-dihydrothieno[2,3-c]pyran-7,4′-piperidine]-4-ol], > 7.00; for `CCc1cc2c(s1)C(C)COC21CCN(Cc2cnn(C)c2)CC1` (single isomer, unassigned) [Compound 1170, 2-ethyl-7-methyl-1′-[(1-methylpyrazol-4-yl)methyl]spiro[6,7-dihydrothieno[3,2-c]pyran-4,4′-piperidine]], 6.30 to 7.00. In the case of `CCc1cc2c(s1)C(C)COC21CCN(Cc2cnn(C)c2)CC1` (single isomer, unassigned) [Compound 1171, 2-ethyl-7-methyl-1′-[(1-methylpyrazol-4-yl)methyl]spiro[6,7-dihydrothieno[3,2-c]pyran-4,4′-piperidine]] it was 6.00 to 6.30; in that of `CCc1cc2c(s1)CCO[C@@]21CCN(C[C@H]2C[C@@H](NC(=O)C3CCc4ccccc4O3)C2)[C@H](C)C1` (stereo in doubt) [Compound 332], 6.30 to 7.00. As to `C[C@@H]1C[C@]2(CCN1Cc1cn(CC(O)C(C)(C)O)nn1)OCCc1cc(Cl)sc12` (stereo in doubt) [Compound 626, 1-(4-(((2R,4S)-2′-chloro-2-methyl-4′,5′-dihydrospiro[piperidine-4,7′-thieno[2,3-c]pyran]-1-yl)methyl)-1H-1,2,3-triazol-1-yl)-3-methylbutane-2,3-diol], the pIC50 is > 7.00.

Regarding `C[C@@H]1C[C@]2(CCN1Cc1cnn(C)c1)OCCc1cc(Cl)sc12` (stereo in doubt) [Compound 630, (2R,4S)-2′-chloro-2-methyl-1-((1-methyl-1H-pyrazol-4-yl)methyl)-4′,5′-dihydrospiro[piperidine-4,7′-thieno[2,3-c]pyran]], the pIC50 is > 7.00.

As for `CCN1CC[C@]2(C[C@@H]1C)OCC(O)c1cc(Cl)sc12` (stereo in doubt) [Compound 821, (2′S,4S,7R)-2-chloro-1′-ethyl-2′-methyl-spiro[4,5-dihydrothieno[2,3-c]pyran-7,4′-piperidine]-4-ol], the pIC50 was 6.30 to 7.00. In the case of `C[C@H]1C[C@@]2(CCN1Cc1cnn(CC(O)C(C)(C)O)c1)OCC(O)(C(F)F)c1cc(Cl)sc12` (stereo in doubt) [Compound 829, 1-[4-[[(2′S,4R,7R)-2-chloro-4-(difluoromethyl)-4-hydroxy-2′-methyl-spiro[5H-thieno[2,3-c]pyran-7,4′-piperidine]-1′-yl]methyl]pyrazol-1-yl]-3-methyl-butane-2,3-diol] it was > 7.00.

The values are drawn from patent US20250171459A1, “2-METHYL-4',5'-DIHYDROSPIRO[PIPERIDINE-4,7'-THIENO[2,3-C]PYRAN] DERIVATIVES AS INHIBITORS OF APOL1 AND METHODS OF USING SAME” (Vertex Pharmaceuticals Incorporated, priority 2022, published 2025).
